Series [1] relates to MCF7. Nature of the series: MTT anti-proliferative assay, MCF7. It is filed as cell-based. The conditions noted are these: Homo sapiens, mean ± SD of three independent experiments. As for the experimental part: (§1) Doxorubicin (DOX) was used as a reference drug.
(§2) Cell lines were obtained from ATCC via Holding company for biological products and vaccines (VACSERA), Cairo, Egypt. Doxorubicin (Dox.) is used as a standard anticancer drug. This colorimetric assay is based on the conversion of yellow (MTT) to a purple formazan derivative by mitochondrial succinate dehydrogenase in viable cells. This colorimetric assay was performed according to the reported method[36],[37].

Series [2] concerns the target EGFR-TK (Homo sapiens, UniProt P00533). Nature of the series: EGFR-TK inhibition assay.
Series [3] has as its system WI-38. Nature of the series: MTT cytotoxicity against normal fibroblast cells WI-38. Conditions: Homo sapiens, WI-38, read-out: IC50 WI-38.
Series [4] concerns HePG-2. Nature of the series: MTT anti-proliferative assay, HepG-2. The conditions noted are these: Homo sapiens, HepG2, read-out: IC50 HePG-2.
Series [5] relates to HCT116. Nature of the series: MTT anti-proliferative assay, HCT116. In kind it is cell-based. The conditions noted are these: Homo sapiens, HCT-116, mean ± SD of three independent experiments. As for the experimental part:
as §1, §2

The subject of series [6] is EGFR. Conditions: cited from earlier work.
In series [7] the test system is MCF-7. Conditions: cited from earlier work.
Series [8] relates to HepG-2 cells. The experiment in a line: Intracellular ROS accumulation assay (ELISA). The conditions noted are these: HepG-2, mean ± SD of three experiments, control 105.6 ± 10.8. In kind it is cell-based, human. From the text: Under both physiological and pathological circumstances, reactive oxygen species (ROS) such H2O2 and superoxides play a significant role in the activation of apoptosis. It's interesting to note that mitochondria both produce and absorb ROS.
Intracellular reactive oxygen species (ROS) were detected by the EIAab ROS ELISA kit according to the reported method.

The test system of series [9] is HCT116, HepG-2 and MCF7. Nature of the series: MTT assay, all three cancer cell lines (summary range). The conditions noted are these: Homo sapiens, read-out: IC50 range against all cancer cell lines.

Structures are written as SMILES. Read-outs that look alike come from different tables or passages of the source.

Chain of EGFR-TK (P00533 25-1210): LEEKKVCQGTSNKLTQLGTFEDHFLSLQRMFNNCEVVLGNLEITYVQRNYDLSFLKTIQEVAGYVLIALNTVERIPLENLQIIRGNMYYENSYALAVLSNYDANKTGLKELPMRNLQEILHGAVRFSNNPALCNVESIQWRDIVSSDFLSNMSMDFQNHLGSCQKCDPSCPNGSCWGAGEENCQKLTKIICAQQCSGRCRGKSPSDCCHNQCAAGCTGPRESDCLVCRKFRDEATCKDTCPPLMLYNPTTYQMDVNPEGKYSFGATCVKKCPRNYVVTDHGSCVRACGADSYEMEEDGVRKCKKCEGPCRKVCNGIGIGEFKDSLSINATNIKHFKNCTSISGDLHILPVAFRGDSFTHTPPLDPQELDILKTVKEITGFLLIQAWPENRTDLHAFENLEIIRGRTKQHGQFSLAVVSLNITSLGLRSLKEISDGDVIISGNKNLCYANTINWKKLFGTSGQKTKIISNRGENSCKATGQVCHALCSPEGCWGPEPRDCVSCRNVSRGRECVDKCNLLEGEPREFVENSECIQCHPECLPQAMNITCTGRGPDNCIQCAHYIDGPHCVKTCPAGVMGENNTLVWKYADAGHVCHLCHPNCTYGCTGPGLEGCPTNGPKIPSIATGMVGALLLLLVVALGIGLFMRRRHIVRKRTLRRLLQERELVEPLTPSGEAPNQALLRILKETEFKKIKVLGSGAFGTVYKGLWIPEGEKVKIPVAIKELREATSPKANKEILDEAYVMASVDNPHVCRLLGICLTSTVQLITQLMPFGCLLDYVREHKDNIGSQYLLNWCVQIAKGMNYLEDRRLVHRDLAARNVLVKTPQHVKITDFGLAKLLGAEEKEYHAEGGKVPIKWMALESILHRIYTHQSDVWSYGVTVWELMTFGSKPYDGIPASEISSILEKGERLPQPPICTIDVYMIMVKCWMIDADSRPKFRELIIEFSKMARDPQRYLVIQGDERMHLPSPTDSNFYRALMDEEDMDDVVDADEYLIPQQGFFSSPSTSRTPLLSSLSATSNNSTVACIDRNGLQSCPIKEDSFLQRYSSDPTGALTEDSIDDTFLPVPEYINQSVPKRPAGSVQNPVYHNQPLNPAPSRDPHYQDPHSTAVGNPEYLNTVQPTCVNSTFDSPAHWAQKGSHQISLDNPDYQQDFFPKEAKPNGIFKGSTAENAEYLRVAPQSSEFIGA

`CC(=O)N1N=C(c2ccc(OCc3ccccc3)cc2)CC1c1cccc([N+](=O)[O-])c1` (centres unmarked) [Compound 9b, 1-(3-(4-(Benzyloxy)phenyl)-5-(3-nitrophenyl)-4,5-dihydro-1H-pyrazol-1-yl)ethan-1-one] had a melting point of 127 to 129 °C. This compound registered an IC50 in series [1] of 15.2 ± 1.2 µM. In [2], this compound showed an IC50 of 0.2 ± 0.01 µM. The IC50 in series [3] worked out at 55.9 ± 3.2 µM. Moreover, in series [4], the IC50 was determined as 7.83 ± 0.5 µM. The compound also gave an IC50 in [5] of 10.2 ± 0.9 µM.
`O=[N+]([O-])c1cccc(C2CC(c3ccc(OCc4ccccc4)cc3)=NN2)c1` (centres unmarked) [Compound 10b, 3-(4-(Benzyloxy)phenyl)-5-(3-nitrophenyl)-4,5-dihydro-1H-pyrazole] returned a melting point of 108 to 110 °C. This compound came in with a half-maximal inhibitory concentration (IC50) in series [1] of 5.97 ± 0.3 µM. In [2], this compound came in with an IC50 of 0.16 µM. In series [3], the IC50 was determined as 37.9 ± 2.3 µM. Also, the IC50 in series [4] came out at 3.98 ± 0.2 µM. In addition, in [5], the IC50 came out at 8.73 ± 0.7 µM.
Compound `c1ccc(COc2ccc(-c3nnc(SC4CCCCCC4)o3)cc2)cc1` [Compound 5d, 2-(4-(Benzyloxy)phenyl)-5-(cycloheptylthio)-1,3,4-oxadiazole] displayed a melting point of 83 to 85 °C. Besides, the IC50 in [1] was above 100 µM. The half-maximal inhibitory concentration (IC50) in series [3] is 46.6 ± 2.7 µM. For the same compound, the IC50 in [4] was determined as 82.8 ± 4.5 µM. In series [5], this compound displayed an IC50 of 88.6 ± 4.8 µM.
Take `NC(=O)N1N=C(c2ccncc2)CC1c1cn(-c2ccccc2)nc1-c1ccc(OCc2ccccc2)cc1` (centres unmarked) [VI]: the half-inhibitory concentration (IC50) in series [6] was 3.65 µM.
Turning to `CC(=O)N1N=C(c2ccc(OCc3ccccc3)cc2)CC1c1cccc(Br)c1` (centres unmarked) [Compound 9a, 1-(3-(4-(Benzyloxy)phenyl)-5-(3-bromophenyl)-4,5-dihydro-1H-pyrazol-1-yl)ethan-1-one], the melting point lay in the range of 93 to 95 °C. The IC50 in [1] was 46.1 ± 2.5 µM. The IC50 in series [3] was 85.1 ± 4.1 µM. For the same compound, the IC50 in series [4] stood at 32.6 ± 2.1 µM. The IC50 in series [5] was 55.3 ± 3.1 µM.
In the same order, the values of `Cc1ccc(CSc2nnc(-c3ccc(OCc4ccccc4)cc3)o2)cc1` [Compound 5c, 2-(4-(Benzyloxy)phenyl)-5-((4-methylbenzyl)thio)-1,3,4-oxadiazole] are 130 to 132 °C, 92.2 ± 4.9 µM, above 100 µM, 71.4 ± 3.9 µM and 79.8 ± 4.4 µM.
Take `CC(=O)N1N=C(c2ccc(-c3cncnc3)cc2)CC1c1ccc(F)cc1` (centres unmarked) [V]: the EGFR inhibition rate is 83% in series [6] (0.19 μM concentration) and 82% in series [6] (50 μM concentration).
For the compound `Nc1cc(-c2nnc(SCC(=O)c3ccccc3)o2)ccn1` [I], the IC50 in series [7] was 0.01 µM.
Regarding `CCOC(=O)CSc1nnc(-c2ccc(OCc3ccccc3)cc2)o1` [Compound 5f., Ethyl 2-((5-(4-(benzyloxy)phenyl)-1,3,4-oxadiazol-2-yl)thio)acetate], the melting point is 100 to 102 °C. The IC50 in [1] was above 100 µM. For the same compound, the IC50 in series [3] turned out to be 77.3 ± 3.9 µM. The IC50 in [4] is 91.3 ± 5 µM. In series [5], this compound registered an IC50 above 100 µM.
With `COc1ccc(C2=NN(C(C)=O)C(/C=C/c3ccccc3)C2)cc1` (centres unmarked) [IV], the IC50 in [7] was 4.33 µM; in series [6], 0.46 µM.
Take `Brc1cccc(C2CC(c3ccc(OCc4ccccc4)cc3)=NN2)c1` (centres unmarked) [Compound 10a, 3-(4-(Benzyloxy)phenyl)-5-(3-bromophenyl)-4,5-dihydro-1H-pyrazole]: the melting point fell in the range of 86 to 88 °C. Also, half-maximal inhibition in series [1] (IC50) was put at 8.11 ± 0.6 µM. In [2], this compound displayed an IC50 of 0.7 ± 0.03 µM. Moreover, the IC50 in series [3] was 62.3 ± 3.4 µM. The IC50 in [4] was 6.32 ± 0.4 µM. Also, 9.94 ± 0.8 µM corresponded to half-maximal inhibition in series [5] (IC50).
With `O=C(CSc1nnc(-c2ccc3nccnc3c2)o1)c1ccc([N+](=O)[O-])cc1` [II], in series [6], the IC50 was 0.95 µM.
With `COc1cccc2c1C(=O)c1c(O)c3c(c(O)c1C2=O)C[C@@](O)(C(=O)CO)C[C@@H]3O[C@H]1C[C@H](N)[C@H](O)[C@H](C)O1` [DOX, Doxorubicin, reference compound], the IC50 in series [4] was 4.5 ± 0.2 µM.
Turning to `Nc1ccccc1-c1nnc(SCc2ccccc2)o1` [III], the 50% inhibitory concentration (IC50) in [6] was 1.51 µM.
Compound `c1ccc(COc2ccc(-c3nnc(SC4CCCC4)o3)cc2)cc1` [Compound 5e, 2-(4-(Benzyloxy)phenyl)-5-(cyclopentylthio)-1,3,4-oxadiazole] showed a melting point of 91 to 93 °C. The IC50 in series [1] is 86.8 ± 4.5 µM. Also, the IC50 in series [3] came out at 11.7 ± 0.9 µM. Also, the IC50 in [4] worked out at 59.3 ± 3.4 µM. In [5], this compound had an IC50 of 75.6 ± 4.2 µM.
With `COc1cc2ncnc(Nc3ccc(F)c(Cl)c3)c2cc1OCCCN1CCOCC1` [Gefitinib, reference compound], the figures for the ROS in series [8] and in series [8] (listed as gefitinib) were 260 ± 14.7 pg/mL and 260 pg/mL, respectively.
As for `Clc1ccc(CSc2nnc(-c3ccc(OCc4ccccc4)cc3)o2)cc1` [Compound 5b, 2-(4-(Benzyloxy)phenyl)-5-((4-chlorobenzyl)thio)-1,3,4-oxadiazole], the melting point lay in the range of 125 to 127 °C. The IC50 in [1] was 84.3 ± 4.4 µM. Besides, the IC50 in [3] is 13.2 ± 1.1 µM. For the same compound, the IC50 in series [4] was 38.1 ± 2.2 µM. Besides, the IC50 in series [5] was 73.2 ± 4.2 µM.
Compound `COc1ccc(C2CC(c3ccc(OCc4ccccc4)cc3)=NN2C(C)=O)cc1OC` (centres unmarked) [Compound 9c, 1-(3-(4-(Benzyloxy)phenyl)-5-(3,4-dimethoxyphenyl)-4,5-dihydro-1H-pyrazol-1-yl)ethan-1-one] displayed a melting point of 85 to 87 °C. This compound also had an IC50 in series [1] of 8.53 ± 0.6 µM. For the same compound, in [3], the IC50 was 49.6 ± 2.8 µM. In series [4], the IC50 was 12.2 ± 0.9 µM. In [5], this compound gave an IC50 of 16.2 ± 1.2 µM.
`COc1ccc(C2CC(c3ccc(OCc4ccccc4)cc3)=NN2)cc1OC` (centres unmarked) [Compound 10c, 3-(4-(Benzyloxy)phenyl)-5-(3,4-dimethoxyphenyl)-4,5-dihydro-1H-pyrazole]: the melting point was 128 to 130 °C. In [1], this compound displayed an IC50 of 2.86 ± 0.1 µM. Further, in series [2], it took 0.27 ± 0.01 µM to reach half-maximal inhibition (IC50). Further, the IC50 in series [9] fell in the range of 1.82 to 5.55 µM. Moreover, the IC50 in series [3] is 41.2 ± 2.4 µM. For the same compound, the IC50 in series [4] was determined as 1.82 ± 0.1 µM. In addition, in series [5], the half-maximal inhibitory concentration (IC50) stood at 5.55 ± 0.3 µM.
